Data as given in US20210070718A1, “NOVEL PHENYLSULFONYL OXAZOLE DERIVATIVE AND USE THEREOF” (priority 2018, published 2021).

Experiments:
Type in all cases: in vivo
APP/PS1 mouse [1] = test: Amyloid-β and tau deposition by thioflavin S / immunofluorescence staining in brain cortex and hippocampus; conditions: 50 mg/kg intraperitoneally 3 times a week for 2 months, compared to APP/PS1 mouse (PBS)
Source text: (§1) A mouse experiment was approved by the Kyungpook National University Institutional Animal Care and Use Committee (IACUC). As an animal model of neurodegenerative disease (particularly, Alzheimer's disease), a transgenic mouse line overexpressing APPswe (hAPP695swe) and PS1 (presenilin-1M146V) based on a C57BL/6 mouse (Charles River, UK) was used. [hereinafter, APP/PS1 mouse (denoted by AD), GlaxoSmithKline Co., Ltd.]
(§2) To confirm a therapeutic effect of the autophagy enhancing compound obtained in <Example 1>, an experimental substance was administered to the animal model according to the experimental outline (schedule) illustrated in FIG. 1. Specifically, PBS or the autophagy enhancing compound was intraperitoneally injected into a 6.5-month-old mouse 3 times a week at a dose of 50 mg/kg. After two months of the injection of the autophagy enhancing compound, behavioral analysis was performed, and the brain tissue of the mouse was used as a sample after the behavioral analysis (i.e., at 9.5 […] of mouse) (see FIG. 1).
(§3) After immobilization of the mouse's cerebrum and hippocampus, 0.5% thioflavin S (Sigma-Aldrich), anti-20G10 against Aβ42 (mouse, 1:1000) and anti-G30 against A1340 (rabbit, 1:1000), anti-GFAP (rabbit, 1:500, DAKO) and anti-Iba-1 (rabbit, 1:500, WAKO) were incubated together. The sites were analyzed using a confocal laser scanning microscope or an Olympus BX51 microscope equipped with Fluoview SV1000 imaging software (Olympus FV1000, Japan). A percentage of an area of a stained area to an area of total tissues was quantified and analyzed by using Metamorph software (Molecular Devices).
In order to determine whether the aforementioned autophagy enhancing compound had effects for prevention and treatment on neurodegenerative disease, the effect of the compound on an Alzheimer's model was representatively evaluated.
First, an amyloid-β (Aβ) profile of an Alzheimer's lesion and the deposition degree of tau protein were confirmed. First, the cerebral cortex and hippocampus regions of the mouse were stained with thioflavin S (ThioS) according to a known method to confirm the deposition degree of fibrillar amyloid-β. In addition, immunofluorescence staining of Aβ40, Aβ42, and AT8 was performed to confirm the deposition degree of amyloid-β and tau protein.

APP/PS1 mouse [2] = test: Morris water maze (MWM) test; conditions: 50 mg/kg intraperitoneally 3 times a week for 2 months, FIGS. 5A to 5C
Source text: as §1, §2
(§4) In order to confirm potential effects on learning and memory, Morris water maze (MWM) and fear conditioning tests were performed. In the MWM, the mouse learned a task 4 times a day for 10 days, a platform was removed on day 11, and a probe trial was performed. […]

APP/PS1 mouse [3] = test: Fear conditioning test; conditions: 50 mg/kg intraperitoneally 3 times a week for 2 months, FIG. 5D
Source text: as §1, §2, §4

APP/PS1 mouse [4] = test: Astrocyte (GFAP) and microglia (Iba-1) immunofluorescence in brain; conditions: 50 mg/kg intraperitoneally 3 times a week for 2 months, compared with APP/PS1 mouse
Source text: as §1
To confirm a therapeutic effect of the autophagy enhancing compound obtained in <Example 1>, an experimental substance was administered to the animal model according to the experimental outline (schedule) illustrated in FIG. 1. Specifically, PBS or the autophagy enhancing compound was intraperitoneally injected into a 6.5-month-old mouse 3 times a week at a dose of 50 mg/kg. […]
as §3, with “Devices). […]” for “Devices).”

APP/PS1 mouse [5] = test: Real-time quantitative PCR of inflammatory cytokines in brain tissue; conditions: 50 mg/kg intraperitoneally 3 times a week for 2 months, brain mRNA, FIG. 6C
Source text: as §1, §2
A real-time quantitative PCR method was used to measure the expression levels of inflammatory response-related cytokines (TNF-α, IL-1β, and IL-6). Total RNA was extracted from the brain tissue using an RNeasy Plus mini kit (Qiagen, Korea, Ltd), and cDNA was synthesized from a total of 5 μg of RNA using a kit from Clontech (Mountain View, Calif.). In addition, by using a Corbett research RG-6000 real-time PCR instrument, real-time quantitative PCR was performed by setting 95° C., 10 minutes; 95° C., 10 seconds; and 58° C., 15 seconds as one cycle and repeating 40 cycles.

APP/PS1 mouse [6] = test: Western blotting of autophagy-related proteins in brain tissue
Source text: as §1, §2
Expression of the following genes was analyzed using Western blotting. First, antibodies against LC3, beclin-1, and p62 [all, purchased from cell signaling Technologies], cathepsin D (R&D systems) and β-actin (Santa Cruz) were used, and density quantification was performed by using ImageJ software (US National Institutes of Health).
In order to confirm how the aforementioned autophagy enhancing compound (in particular, 5-methoxy-4-(phenylsulfonyl)-2-(4-(trifluoromethyl)phenyl)oxazole) actually act in an autophagy-related pathway in vivo, conversion of LC3-I to LC3-II, and expression levels of beclin-1, cathepsin D and p62 were confirmed through a Western blotting experiment in brain tissue samples of 9.5-month-old WT, APP/PS1 (untreated group), and an APP/PS1 mouse injected with the autophagy enhancing compound.

[7] = 9.5-month-old APP/PS1 mouse, 50 mg/kg intraperitoneally 3 times a week for 2 months, versus increased level in APP/PS1 mouse

COc1oc(-c2ccc(C(F)(F)F)cc2)nc1S(=O)(=O)c1ccccc1 [autophagy enhancing compound, 5-methoxy-4-(phenylsulfonyl)-2-(4-(trifluoromethyl)phenyl)oxazole]
deposition of fibrillar Aβ (thioflavin S) (APP/PS1 mouse [1]; cerebral cortex and hippocampus, FIG. 2): significantly low
deposition of Aβ40 (APP/PS1 mouse [1]; cortex and hippocampus, FIG. 3A): significantly low
deposition of Aβ42 (APP/PS1 mouse [1]; cortex and hippocampus, FIG. 3B): significantly low
deposition of tau protein (AT8) (APP/PS1 mouse [1]; cortex and hippocampus, FIG. 4): significantly low
impairment in spatial memory, cognition and memory formation (Morris water maze) (APP/PS1 mouse [2]): significantly improved
memory in fear conditioning test (contextual and tone tasks) (APP/PS1 mouse [3]): remarkable memory improvement effect
activity of astrocytes (GFAP) (APP/PS1 mouse [4]; FIG. 6A): significantly reduced
activity of microglia (Iba-1) (APP/PS1 mouse [4]; FIG. 6B): significantly reduced
gene expression of inflammatory cytokine IL-1β (APP/PS1 mouse [5]): restored to a normal level
gene expression of inflammatory cytokine IL-6 (APP/PS1 mouse [5]): restored to a normal level
gene expression of inflammatory cytokine TNF-α (APP/PS1 mouse [5]): restored to a normal level
level of LC3-II (APP/PS1 mouse [6]; 9.5-month-old APP/PS1 mouse, 50 mg/kg intraperitoneally 3 times a week for 2 months, FIG. 7): decreased to a level similar to WT
expression level of cathepsin D (APP/PS1 mouse [6]; [7]): decreased
expression level of p62 (APP/PS1 mouse [6]; [7]): decreased
expression of beclin-1 (APP/PS1 mouse [6]; 9.5-month-old WT, APP/PS1 and injected APP/PS1 mouse, FIG. 7): no large difference in the three groups
